The text below walks through data of ChEMBL document CHEMBL1909046, “DrugMatrix in vitro pharmacology data”.

Structures are written as SMILES.

Assay [1] has as its target T1, Amine oxidase [flavin-containing] A (Homo sapiens, UniProt P21397).
T1 sequence (P21397 whole entry): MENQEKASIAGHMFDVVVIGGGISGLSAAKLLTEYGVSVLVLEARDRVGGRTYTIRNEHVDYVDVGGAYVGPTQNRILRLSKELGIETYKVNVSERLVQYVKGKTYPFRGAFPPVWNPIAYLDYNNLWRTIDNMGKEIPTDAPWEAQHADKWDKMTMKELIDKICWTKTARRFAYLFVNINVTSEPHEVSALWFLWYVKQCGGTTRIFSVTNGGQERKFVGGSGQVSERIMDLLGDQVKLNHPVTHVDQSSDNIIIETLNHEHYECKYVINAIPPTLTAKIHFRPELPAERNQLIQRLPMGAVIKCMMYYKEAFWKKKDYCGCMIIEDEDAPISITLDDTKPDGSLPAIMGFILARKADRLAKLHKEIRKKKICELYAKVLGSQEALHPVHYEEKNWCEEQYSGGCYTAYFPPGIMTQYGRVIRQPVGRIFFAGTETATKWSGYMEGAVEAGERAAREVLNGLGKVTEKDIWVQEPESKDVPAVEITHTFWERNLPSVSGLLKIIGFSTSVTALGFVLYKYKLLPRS
The experiment in a line: DRUGMATRIX: Monoamine Oxidase MAO-A enzyme inhibition (substrate: Kynuramine). Set-up: species or system BTI-TN-5B1-4. The note with it: bti-tn-5b1-4; Not Active = under 50% inhibition at 10 µM.

The target of assay [2] is Adenosine receptor A2a (Homo sapiens, UniProt P29274). Briefly: DRUGMATRIX: Adenosine A2A radioligand binding (ligand: […]). In kind it is cell membranes, HEK293, Membrane. The note with it: hek293; Not Active = under 50% inhibition at 10 µM.
Assay [3] deals with Kappa-type opioid receptor (Homo sapiens, UniProt P41145). The experiment in a line: DRUGMATRIX: Opiate kappa (OP2, KOP) radioligand binding (ligand: [3H] Diprenorphine). In kind it is cell membranes, HEK293, Membrane. As to conditions: hek293; Not Active = under 50% inhibition at 10 µM.
Assay [4] can be described thus: DRUGMATRIX: Phosphodiesterase PDE3 enzyme inhibition (substrate: [3H]cAMP + cAMP). Type of assay: tissue-based, Homo sapiens. The note with it: platelet; Not Active = under 50% inhibition at 10 µM.
Assay [5] can be described thus: DRUGMATRIX: Calcium Channel Type L, Dihydropyridine radioligand binding (ligand: [3H] Nitrendipine). In kind it is cell membranes, Rattus norvegicus, Wistar, Cerebral cortex, Membrane. As to conditions: Not Active = under 50% inhibition at 10 µM.
A short description of assay [6]: DRUGMATRIX: Leukotriene, BLT (LTB4) radioligand binding (ligand: [3H]LTB4). In kind it is cell membranes, Membrane. As to conditions: u-937; Not Active = under 50% inhibition at 10 µM.
The nature of assay [7]: DRUGMATRIX: Phosphodiesterase PDE4 enzyme inhibition (substrate: [3H]cAMP + cAMP). As to conditions: u-937; Not Active = under 50% inhibition at 10 µM.
The target of assay [8] is T2, C-X-C chemokine receptor type 2 (Homo sapiens, UniProt P25025). Further: in other assays of this panel Not Active means under 50% inhibition at 10 µM.
T2 sequence (P25025 whole entry): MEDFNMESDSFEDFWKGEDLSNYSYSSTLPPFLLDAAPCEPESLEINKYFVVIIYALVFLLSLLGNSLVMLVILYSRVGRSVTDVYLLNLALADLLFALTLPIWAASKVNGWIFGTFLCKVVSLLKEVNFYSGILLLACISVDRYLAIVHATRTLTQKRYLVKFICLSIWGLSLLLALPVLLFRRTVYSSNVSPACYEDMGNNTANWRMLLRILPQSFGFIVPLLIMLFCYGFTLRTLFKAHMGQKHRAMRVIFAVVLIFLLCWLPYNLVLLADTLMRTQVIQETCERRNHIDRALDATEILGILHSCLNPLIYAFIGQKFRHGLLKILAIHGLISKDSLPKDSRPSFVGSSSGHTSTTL
In kind it is cell membranes, Membrane. The note with it: cho-k1.

A short description of assay [9]: DRUGMATRIX: ATPase, Na+/K+ enzyme inhibition (substrate: ATP). In kind it is tissue-based, Sus scrofa, Heart. The note with it: Not Active = under 50% inhibition at 10 µM.
A short description of assay [10]: DRUGMATRIX: Interleukin IL-1 radioligand binding (ligand: [125I] interleukin 1beta). Type of assay: cell membranes, Membrane. As to conditions: nih3t3; Not Active = under 50% inhibition at 10 µM.
Assay [11] has as its target Delta-type opioid receptor (Homo sapiens, UniProt P41143). Type of assay: cell membranes, HEK293, Membrane. The note with it: hek293. Further: in other assays of this panel Not Active means under 50% inhibition at 10 µM.
The target of assay [12] is Substance-P receptor (Homo sapiens, UniProt P25103). Type of assay: cell membranes, CHO, Membrane. The note with it: cho. Further: in other assays of this panel Not Active means under 50% inhibition at 10 µM.
Assay [13] has as its target T3, Glucocorticoid receptor (Homo sapiens, UniProt P04150). Further: in other assays of this panel Not Active means under 50% inhibition at 10 µM.
T3 sequence (P04150 whole entry): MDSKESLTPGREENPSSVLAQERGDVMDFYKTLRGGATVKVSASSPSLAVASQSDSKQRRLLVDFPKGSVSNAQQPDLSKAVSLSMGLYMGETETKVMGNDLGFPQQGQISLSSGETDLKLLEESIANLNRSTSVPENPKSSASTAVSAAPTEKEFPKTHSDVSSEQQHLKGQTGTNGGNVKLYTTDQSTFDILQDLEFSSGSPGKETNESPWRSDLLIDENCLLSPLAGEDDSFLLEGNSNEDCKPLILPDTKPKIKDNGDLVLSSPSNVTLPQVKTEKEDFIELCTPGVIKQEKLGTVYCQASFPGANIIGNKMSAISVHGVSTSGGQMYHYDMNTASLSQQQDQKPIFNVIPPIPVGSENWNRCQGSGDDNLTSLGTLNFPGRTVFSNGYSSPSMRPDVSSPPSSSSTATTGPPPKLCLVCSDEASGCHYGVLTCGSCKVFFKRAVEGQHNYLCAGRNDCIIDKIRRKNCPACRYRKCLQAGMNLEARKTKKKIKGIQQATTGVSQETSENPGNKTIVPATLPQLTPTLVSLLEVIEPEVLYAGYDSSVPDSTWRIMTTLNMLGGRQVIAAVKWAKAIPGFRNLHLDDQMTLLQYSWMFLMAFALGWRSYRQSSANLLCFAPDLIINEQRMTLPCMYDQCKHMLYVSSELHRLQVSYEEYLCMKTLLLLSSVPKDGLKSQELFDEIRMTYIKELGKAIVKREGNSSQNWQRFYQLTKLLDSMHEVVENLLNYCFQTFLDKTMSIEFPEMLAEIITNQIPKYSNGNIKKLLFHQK
As to conditions: hela s3.

Delta-type opioid receptor, sequence (P41143 whole entry): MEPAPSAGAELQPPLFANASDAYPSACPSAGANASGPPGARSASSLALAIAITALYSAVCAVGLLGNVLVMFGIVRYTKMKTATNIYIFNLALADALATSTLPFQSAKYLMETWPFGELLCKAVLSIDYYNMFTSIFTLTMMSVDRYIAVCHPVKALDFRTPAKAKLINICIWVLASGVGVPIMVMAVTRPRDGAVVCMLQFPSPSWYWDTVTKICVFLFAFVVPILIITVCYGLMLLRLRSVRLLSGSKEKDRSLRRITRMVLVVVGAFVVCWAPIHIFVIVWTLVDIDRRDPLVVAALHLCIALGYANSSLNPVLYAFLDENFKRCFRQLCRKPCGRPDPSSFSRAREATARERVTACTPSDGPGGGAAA
Adenosine receptor A2a, sequence (P29274 whole entry): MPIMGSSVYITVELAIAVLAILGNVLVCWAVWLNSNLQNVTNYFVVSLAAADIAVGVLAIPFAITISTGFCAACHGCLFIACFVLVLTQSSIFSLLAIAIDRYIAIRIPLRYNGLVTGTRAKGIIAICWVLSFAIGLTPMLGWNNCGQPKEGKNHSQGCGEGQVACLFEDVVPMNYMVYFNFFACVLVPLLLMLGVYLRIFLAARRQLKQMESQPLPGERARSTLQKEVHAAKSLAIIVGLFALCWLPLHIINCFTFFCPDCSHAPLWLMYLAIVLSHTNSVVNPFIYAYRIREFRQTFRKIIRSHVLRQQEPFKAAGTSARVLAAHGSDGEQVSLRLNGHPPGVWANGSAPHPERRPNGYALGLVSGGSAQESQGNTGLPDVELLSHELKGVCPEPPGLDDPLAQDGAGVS
Substance-P receptor, sequence (P25103 whole entry): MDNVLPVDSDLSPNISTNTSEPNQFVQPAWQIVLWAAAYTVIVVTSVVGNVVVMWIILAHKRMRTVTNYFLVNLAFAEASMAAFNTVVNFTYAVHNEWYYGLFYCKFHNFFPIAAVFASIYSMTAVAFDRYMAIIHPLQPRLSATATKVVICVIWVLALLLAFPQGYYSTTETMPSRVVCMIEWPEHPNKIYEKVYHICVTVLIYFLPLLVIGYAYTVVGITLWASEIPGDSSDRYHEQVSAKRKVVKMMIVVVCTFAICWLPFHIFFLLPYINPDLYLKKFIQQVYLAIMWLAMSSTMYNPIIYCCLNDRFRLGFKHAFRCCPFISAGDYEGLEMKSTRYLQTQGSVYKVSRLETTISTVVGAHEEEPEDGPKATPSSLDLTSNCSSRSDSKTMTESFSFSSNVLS
Kappa-type opioid receptor, sequence (P41145 whole entry): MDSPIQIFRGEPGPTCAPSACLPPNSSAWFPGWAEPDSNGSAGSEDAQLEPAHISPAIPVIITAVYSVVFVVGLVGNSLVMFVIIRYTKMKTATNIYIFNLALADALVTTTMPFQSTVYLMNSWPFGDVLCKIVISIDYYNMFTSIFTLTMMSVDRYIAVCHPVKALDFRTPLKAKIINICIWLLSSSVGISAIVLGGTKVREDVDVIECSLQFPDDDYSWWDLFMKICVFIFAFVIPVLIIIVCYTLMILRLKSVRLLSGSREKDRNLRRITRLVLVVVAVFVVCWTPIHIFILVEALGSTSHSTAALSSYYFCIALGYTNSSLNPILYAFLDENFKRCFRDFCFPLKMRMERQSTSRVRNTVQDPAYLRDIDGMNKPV

Regarding `O=P1(NCCCl)OCCCN1CCCl` (centres undefined) [IFOSFAMIDE], the IC50 entry in assay [1], in assay [2], in assay [3], in assay [4], in assay [5] and in [6] was “Not Active” each time. The IC50 entry in assay [7], in assay [8], in assay [9], in [10], in assay [11] and in assay [12] was “Not Active” each time. The concentration for half-maximal inhibition (IC50) – broadly, the concentration that gives 50% inhibition – in assay [13] is “Not Active”. Further, the inhibitory constant (Ki) entry in [4], in assay [5], in [6], in [7], in [9] and in assay [10] was “Not Active” throughout.
As to `O=C1CN=C(c2ccccc2)c2cc([N+](=O)[O-])ccc2N1` [NITRAZEPAM], the IC50 entry in assay [1], in assay [2], in assay [3], in [4], in assay [5] and in assay [6] was “Not Active” each time. Besides, the IC50 entry in assay [7], in [8], in assay [9], in assay [10], in assay [11] and in assay [12] was “Not Active” in each case. Further, the IC50 result in [13] is “Not Active”. For the same compound, the Ki result in assay [4], in assay [5], in [6], in assay [7], in [9] and in assay [10] was “Not Active” each time.
In the case of `CNCCC=C1c2ccccc2CCc2ccccc21` [NORTRIPTYLINE], the IC50 entry in [1], in [2], in [3], in assay [4], in assay [5] and in assay [6] was “Not Active” each time. Also, the IC50 result in assay [7], in assay [8], in [9], in assay [10], in assay [11] and in [12] was “Not Active” each time. In addition, in assay [13], the concentration for half-maximal inhibition (IC50) entry is “Not Active”. Also, the Ki result in [4], in assay [5], in assay [6], in [7], in assay [9] and in assay [10] was “Not Active” each time.
With `CN(C)[C@@H]1C(O)=C(C(N)=O)C(=O)[C@@]2(O)C(O)=C3C(=O)c4c(O)cccc4[C@@](C)(O)[C@H]3[C@H](O)[C@@H]12` [OXYTETRACYCLINE], the IC50 entry in assay [1], in [2], in assay [3], in assay [4], in assay [5] and in assay [6] was “Not Active” throughout. Also, the IC50 entry in [7], in assay [8], in assay [9], in assay [10], in assay [11] and in [12] was “Not Active” each time. Besides, the IC50 entry in [13] is recorded as “Not Active”. The Ki entry in assay [4], in [5], in [6], in [7], in assay [9] and in assay [10] was “Not Active” in each case.
Take `Fc1ccc([C@@H]2CCNC[C@H]2COc2ccc3c(c2)OCO3)cc1` [PAROXETINE]: the IC50 entry in [1] was “Not Active”; in assay [2], “Not Active”; in assay [3], “Not Active”; in [4], “Not Active”; in assay [5] (read-out: IC50), 1.48 µM; in [6], “Not Active”. In addition, the IC50 entry in [7], in assay [8], in assay [9], in assay [10], in assay [11] and in [12] was “Not Active” each time. Besides, the IC50 entry in [13] is reported as “Not Active”. The Ki (commonly the dissociation constant of the complex between target and ligand, obtained from inhibition or displacement) in assay [4] was “Not Active”; in assay [5] (read-out: Ki), 0.949 µM; in assay [6], “Not Active”; in assay [7], “Not Active”; in assay [9], “Not Active”; in assay [10], “Not Active”.
In the case of `CC(C)(S)[C@@H](N)C(=O)O` [PENICILLAMINE], the IC50 entry in assay [1], in assay [2], in assay [3], in assay [4], in assay [5] and in assay [6] was “Not Active” throughout. The IC50 entry in assay [7], in assay [8], in [9], in assay [10], in assay [11] and in [12] was “Not Active” throughout. The IC50 entry in [13] is recorded as “Not Active”. The inhibition constant Ki result in [4], in [5], in assay [6], in [7], in assay [9] and in assay [10] was “Not Active” in each case.
